“Also recorded” adds a separate entry of the source.
How the values were obtained:
[1] = system: SCD-1 protein; assay: Immunoblotting of Flag-tagged SCD-1 in hepatocytes; assay type: cell-based; details: CMV promoter construct
Excerpt: FIG. 3F presents data from the immunoblotting of Flag-tagged SCD-1 in hepatocytes treated with control, palmitate and palmitoleate. Anti-tubulin blot was used as loading control. The observations reported herein also raised the possibility that C16:1n7-palmitoleate might be the lipid species responsible, at least in part, for the metabolic activities linked to adipose tissue FABPs. […] Because palmitoleate is nearly ten-times more abundant in the plasma of FABP^−/− mice than is AA (FIG. 2C), it is most likely accounts for the suppression of SCD-1 under physiologically relevant conditions. The effects of palmitoleate on the levels of SCD-1 protein, which is known to have a very short half-life (Heinemann & Ozols, 68 Prostaglandins Leukot. Essent. Fatty Acids 123-33 (2003)), were also examined. […] Maeda et al., 2005.

[2] = system: SCD-1 promoter; assay: SCD-1 promoter-driven luciferase reporter in FAO hepatoma cells; assay type: cell-based, murine
Method: This possibility was tested using several highly sensitive assays to probe the functional profile and activities of plasma lipids. SCD-1 was chosen as a target because it was determined previously that the suppression of hepatic SCD-1 activity is a major alteration in FABP-deficient mice under diet-induced or genetic obesity. Cao et al., 2006; Maeda et al., 2005. Hepatic SCD-1 expression is regulated by a variety of hormones and nutritional factors such as insulin, glucose, and polyunsaturated fatty acids (PUFAs). Ntambi & Miyazaki, 43 Prog. Lipid Res. 91-104 (2004). […] Chu et al., 26 Mol. Cell Biol. 6786-98 (2006); Ntambi, 40 J. Lipid Res. 1549-58 (1999). The 1.5 kb murine SCD-1 promoter was placed in front of a luciferase reporter and inserted into an adenovirus construct. FAO rat hepatoma cells infected with this adenovirus verified the responsiveness of this reporter to PUFA, consistent with previous observations (FIG. 15). Because this assay system was adapted to a microplate format, very small amounts of lipids were required for experimentation. This system allowed direct testing for the effects of lipids extracted from plasma of WT and FABP-deficient animals.
Lipids were extracted from whole plasma and applied to liver cells expressing the SCD-1 promoter reporter gene. […] To control for any difference in the amount of lipids extracted from plasma and to mimic the in vivo regulation of SCD-1 expression, mixtures of FFAs were generated with the same molar ratio detected in WT or FABP-deficient plasma lipids using the major fatty acids listed in FIG. 2C. […]
(§1) Samples of 200 μl serum were collected using heparin-coated glass tubes and spun at 13,000 g in a microcentrifuge to separate the plasma. […] Tissue protein lysates was separated with SDS-PAGE gels and phosphorylated or total proteins were detected with the following antibodies: phospho AKT Serine 473, AKT, insulin receptor, phospho-tyrosine (Santa Cruz Biotech.); IRS-1 and IRS-2 (Upstate); phospho-GSK and GSK (Cell Signaling Tech.); phospho-insulin receptor from (Calbiocbem). […]

[3] = system: MCP1, TNFalpha and IL6 expression in adipocyte fraction; assay: Cytokine expression in adipocyte fraction of epididymal fat pads; assay type: cell-based, mice; details: 500 μM for 2 hrs, compared to palmitate
Method: FIGS. 16A and 16B present cytokine expression in adipocyte and stromal vascular fractions treated with fatty acids. Epidydamal fat pads were dissected from WT mice and separated into adioycte and stromal vascular fractions as described in Experimental Procedures. Each fraction was treated with palmitate or palmitoleate at 500 μM for 2 hrs. Gene expression was determined with quantitative real-time PCR.
Obesity is associated with low-grade inflammation and increased inflammatory activities in liver and adipose tissues contribute to the development of systemic insulin resistance. Hotamisligil, 444 Nature 860-67 (2006). The effect of plasma lipids on adipose tissue inflammatory responses was explored using explants of adipose tissue treated with lipids from WT or FABP^−/− mice. […] Because adipose tissue contains multiple cell populations in addition to fat cells, adipose tissue was separated into adipocytes and stromal vascular fractions, and each fraction treated with either palmitate or palmitoleate.

[4] = system: AKT phosphorylation in C2C12 myotubes; assay: Insulin-stimulated AKT phosphorylation in C2C12 myotubes; assay type: cell-based
Method: Values of bar plot were determined by phospho-AKT ELISA and corresponding immunoblotting results are shown as Insets.
The bottom panel is the corresponding immunoblotting of total and phosphorylated AKT in cells treated with pooled lipids.
To investigate whether plasma lipids also played a role in regulating muscle insulin action, differentiated C2C12 myotubes were treated with lipid extracts from each genotype and the insulin-stimulated AKT phosphorylation determined using an ELISA system.
The effect of C16:1n7-palmitoleate on muscle insulin signaling was explored by pre-treating C2C12 myotubes with either palmitate or palmitoleate overnight and then stimulating the cells with insulin. […] Conversely, C16:1n7-palmitoleate had little effect on its own in this in vitro setting (FIG. 3G). […]
as §1

CCCCCC/C=C\CCCCCCCC(=O)O [palmitoleate, C16:1n7-palmitoleate]
Flag-tagged SCD-1 protein level [1]: significantly increased SCD-1 protein degradation
effect of palmitate on SCD-1 promoter ([2]; cells treated with a mixture of palmitate and palmitoleate): antagonized
SCD-1 promoter-driven reporter activity ([2]; hepatocytes (FAO) treated with a single fatty acid, 300 μM): negatively regulated; also recorded: comparable to arachidonic acid; also recorded: suppressed
cytokine expression in adipocyte fractions [3]: suppressed
insulin-stimulated AKT phosphorylation ([4]; C2C12 myotubes pre-treated with fatty acid overnight, then insulin): little effect
palmitate-induced reduction in insulin-stimulated AKT phosphorylation ([4]; co-treated with both palmitate and palmitoleate): rescued

Source: patent publication US9239334B2, “Fatty acid C16: 1N7-palmitoleate a lipokine and biomarker for metabolic status” (PRESIDENT AND FELLOWS OF HARVARD COLLEGE, priority 2008, dated 2016)
